Source: patent US20110300142A1, “USE OF ZEBURALINE FOR THE TREATMENT OF AUTOIMMUNE DISEASES OR IMMUNE REJECTION OF TRANSPLANTS” (priority 2007, published 2011)

Key:
human lymphocytes = experiment: Proliferation of stimulated human lymphocytes; type: cell-based
Description: (§1) FIG. 4A show proliferation of stimulated human lymphocytes after five days in culture in the presence of zebularine at different concentrations, FIG. 4B show restoration of inhibited proliferation of stimulated human lymphocytes after five days in culture in the presence of zebularine at two different concentrations and the IDO inhibitor 1-methyl tryptophane at 100 μM and FIG. 4C show proliferation of stimulated rat spleen lymphocytes after four days in culture in the presence of zebularine at different concentrations.
(§2) In an experiment the inventors tested the immunogenicity of genetically engineered rat colon cancer cells expressing rat interleukin 12. These cancer cells have repeatedly been used to immunize rats that create a strong immune response towards the rat tumour cells. […] This was congruent with the changes in expression of IDO (FIG. 3). […] There is a very reproducible induction of IDO (about 20-fold) from different human leukocyte cultures with a slight interindividual variation.

IDO mRNA expression = experiment: qRT-PCR analysis of IDO mRNA expression in rat colon cancer cell lines; type: cell-based; settings: for increase of the IDO mRNA level: 100 μM zebularine, normalized to HPRT
Description: The values given are normalized in relation to the HPRT expression values.
(§3) The treatment with 100 μM of zebularine induced IDO mRNA expression in all three cell lines. A 48-fold increase of the IDO mRNA level in the H1D2WT cell line, a 24-fold increase in the H1D2IL12C46 cell line and a 14-fold increase in the H1D2IL18C2 cell line were detected. […] The inventors know that the 100 μM treatment of tumour cells strongly induces the production of the immunosuppressive molecule IDO but the induction of other T cell immunosuppressive molecules might also be involved, although no evidence has been found for an effect on prostaglandine E2 (PGE2) or nitric oxide (NO) production. It seems that the 100 μM zebularine treatments are not affecting the PGE2 production, the NO production, or the production of tumour antigens.

rat colon cancer cells = experiment: Immunization of rats with zebularine-pretreated tumour cells; proliferative response of spleen cells / immunogenicity; type: in vivo
Description: as §3, §2

tumour cells = experiment: PGE2, NO and tumour antigen production of treated tumour cells; type: cell-based, rat; settings: 100 μM zebularine treatment
Description: as §3

IDO [1] = experiment: IDO induction in human buffy coat leukocyte cultures; type: cell-based; settings: different human leukocyte cultures, slight interindividual variation
From the text: as §2

IDO [2] = experiment: IDO production in rat spleen cells; type: cell-based; settings: similar treatment (100 μM)
From the text: as §2

rat spleen lymphocytes = experiment: Proliferation of stimulated rat spleen lymphocytes; type: cell-based; settings: rat spleen cells
Description: as §1, §2

[3] = mouse, cited from earlier work
[4] = cited from earlier work
p16 gene expression = settings: zebularine 100-500 μM; cited from earlier work
bladder carcinoma cells = settings: zebularine 500-1000 mg/kg; cited from earlier work
[5] = compared to azacytidine or 2′-deoxy-azacytidine; cited from earlier work

Structure (SMILES): Cn1cc(C[C@H](N)C(=O)O)c2ccccc21 [1-methyl tryptophan, reference compound]
- effect on zebularine-induced suppression of proliferation (human lymphocytes; IDO inhibitor added to zebularine-treated stimulated human lymphocytes, 100 μM, five days): can be blocked

Structure (SMILES): O=c1ncccn1[C@@H]1O[C@H](CO)[C@@H](O)[C@H]1O [zebularine, 1-(β-D-Ribofuranosyl)-1,2-dihydropyrimidin-2-one]
- production of IDO (IDO mRNA expression; 100 μM): strongly enhance
- increase of the IDO mRNA level (IDO mRNA expression; H1D2IL12C46 cell line): 24 fold
- increase of the IDO mRNA level (IDO mRNA expression; H1D2IL18C2 cell line): 14 fold
- increase of the IDO mRNA level (IDO mRNA expression; H1D2WT cell line): 48 fold
- immunogenicity of rat colon cancer cells expressing rat interleukin 12 when used for immunization (rat colon cancer cells; cells pre-treated with 100 μM zebularine): less immunogenic
- proliferative response of non-adherent spleen cells stimulated with tumor cells in vitro (rat colon cancer cells; rats immunized with tumour cells pretreated with 100 μM zebularine): very weak proliferative response
- NO production (tumour cells): not affecting
- PGE2 production (tumour cells): not affecting
- production of tumour antigens (tumour cells): not affecting
- induction of IDO (IDO [1]): about 20 fold
- IDO production (IDO [2]): enhanced IDO production
- polyclonal lymphocyte proliferation (human lymphocytes; human buffy coat leukocytes): strong suppression
- polyclonal lymphocyte proliferation (rat spleen lymphocytes): strong suppression
- fraction of dose absorbed in tissues ([3]; i.v., 100 mg/kg, plasma, red blood cells, liver, kidney, spleen, heart, lung, muscle, Duodenum, Jejunum, Ileum, Colon and Carcass): about 60%
- bioavailability after i.v. injection ([3]; i.v.): good
- bioavailability for Fat, Brain, Testes, Cecum and Stomach ([3]; i.v.): less
- turnover in tissues ([3]; many tissues): quite fast
- metabolites [3]: uridine, uracil and dihydrouracil
- solubility in water [4]: soluble in water
- p16 gene expression (p16 gene expression): induces p16 gene expression
- in vivo p16 gene expression (bladder carcinoma cells): induced
- tumour volume (bladder carcinoma cells): reduced
- stability [5]: stable
- toxicity [5]: not very toxic
